Experimental data published in PMC13288469, “Bile acids accumulate norovirus-like particles and enhance binding to and entry into human enteric epithelial cells” (Journal of Virology, 2026).

Each compound was assayed against T1, HuNoV GII.4 VLP (Human calicivirus NLV/DIJON171/96, UniProt Q8QY55) (assay: SPR, Biacore T-200, VLP immobilized on CM5 chip).
T1 construct: full VP1 virus-like particle, self-assembled, from baculovirus (Bac-to-Bac) infected SF-9 cells, sucrose gradient purified; amine-coupled to CM5 chip
Type: binding
From the text: SPR, Biacore T-200, VLP immobilized on CM5 chip on HuNoV GII.4 VLP

First: C[C@H](CCC(=O)NCCS(=O)(=O)O)[C@H]1CC[C@H]2[C@@H]3[C@H](O)C[C@@H]4C[C@H](O)CC[C@]4(C)[C@H]3CC[C@]12C [TCDCA]
Second: C[C@H](CCC(=O)NCC(=O)O)[C@H]1CC[C@H]2[C@@H]3[C@H](O)C[C@@H]4C[C@H](O)CC[C@]4(C)[C@H]3CC[C@]12C [GCDCA]
The Kd of the first is 1.9-fold higher: 236 ± 58 µM for the first, 123 ± 24 µM for the second. The second binds more tightly here.

`C[C@H](CCC(=O)NCCS(=O)(=O)O)[C@H]1CC[C@H]2[C@@H]3CC[C@@H]4C[C@H](O)CC[C@]4(C)[C@H]3C[C@H](O)[C@]12C` [TDCA] and `C[C@H](CCC(=O)NCC(=O)O)[C@H]1CC[C@H]2[C@@H]3CC[C@@H]4C[C@H](O)CC[C@]4(C)[C@H]3C[C@H](O)[C@]12C` [GDCA] are within error of each other in Kd: 308 ± 29.7 µM for the first, 286 ± 64.3 µM for the second.

First: C[C@H](CCC(=O)O)[C@H]1CC[C@H]2[C@@H]3CC[C@@H]4C[C@H](O)CC[C@]4(C)[C@H]3C[C@H](O)[C@]12C [DCA]
Second: C[C@H](CCC(=O)NCCS(=O)(=O)O)[C@H]1CC[C@H]2[C@@H]3CC[C@@H]4C[C@H](O)CC[C@]4(C)[C@H]3CC[C@]12C [TLCA]
The Kd of the first is 2.8-fold higher: 176 ± 4.9 µM for the first, 64 ± 9.9 µM for the second.
